The test system of series [1] is Glomerella lagenarium (Colletotrichum lagenarium). Briefly: Glomerella lagenarium (Colletotrichum lagenarium) liquid culture / cucumber / preventative (anthracnose). It counts as cell-based. The note with it: Colletotrichum orbiculare, liquid culture in PDB, 24° C., 3-4 days after application, read-out: control of Glomerella lagenarium compared to untreated control (inhibition of growth, photometric). In a few lines: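 Conidia from cryogenic storage mixed into potato dextrose broth and added to compound diluted from DMSO stock with 0.025% Tween20. Incubated at 24 °C; growth inhibition read photometrically 3–4 days after application, as percent antifungal activity versus untreated check.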

Series [2] concerns Puccinia recondita f. sp. tritici. In words: Puccinia recondita f. sp. tritici / wheat / leaf disc preventative (brown rust). It counts as in vivo. The note with it: foliar, wheat leaf segments cv. Kanzler, inoculated 1 day after application, assessed 7-9 days after application, read-out: control of Puccinia recondita f. sp. tritici compared to untreated control. In a few lines:
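Wheat leaf segments (cv. Kanzler) on water agar sprayed with compound diluted from DMSO stock in water/0.025% Tween20, then inoculated with P. recondita spores 1 day later. Incubated at 19 °C, 75% rh, 12 h light/dark. Percent disease control versus untreated assessed 7-9 days after application.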

A further series deals with Phakopsora pachyrhizi. In words: Phakopsora pachyrhizi / soybean / leaf disc preventative (Asian soybean rust). The note with it: foliar, soybean leaf disks, inoculated one day after application, assessed 12-14 days after application, read-out: control of Phakopsora pachyrhizi compared to untreated control. The series is classed as in vivo. In a few lines: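 Soybean leaf discs on water agar sprayed with formulated compound diluted in water; spore suspension sprayed on lower surface 1 day later. Kept 24-36 h dark at 20° C, 75% rh, then 12 h light/12 h dark. Percent disease control versus untreated scored 12-14 days after application.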

The test system of a further series is Uromyces viciae-fabae. Briefly: Uromyces viciae-fabae / field bean / leaf disc preventative (faba-bean rust). It counts as in vivo. The note with it: foliar, 288 h, 100 ppm in the applied formulation, field bean leaf discs, inoculated two hours after application, 12 days after application, read-out: disease control compared to untreated control leaf discs. In outline:
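Preventative test: field bean leaf discs on water agar received compound in acetone with spreader, then were spray-inoculated with rust spores on the lower surface 2 h later. Discs were kept at 22 °C, 18 h day, 70% RH, with percent disease control versus untreated assessed 12 days after application.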

Series [3] has as its system Puccinia recondita f. sp. tritici. Briefly: Puccinia recondita f. sp. tritici / wheat / leaf disc curative (brown rust). The series is classed as in vivo. The note with it: foliar, wheat leaf segments cv. Kanzler, applied 1 day after inoculation, assessed 6-8 days after application, read-out: control of Puccinia recondita f. sp. tritici compared to untreated control. In outline:
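Wheat cv. Kanzler leaf segments on agar, inoculated with brown rust spores and kept dark at 19 °C, 75% rh; formulated compound sprayed 1 day after inoculation (curative). Incubated 19 °C, 75% rh, 12 h light/dark; percent disease control vs untreated scored 6–8 days after application.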

`O=C(c1ccc(-c2noc(C(F)(F)F)n2)cc1F)N1CCCCO1` [Compound 1.27, [2-fluoro-4-[5-(trifluoromethyl)-1,2,4-oxadiazol-3-yl]phenyl]-(oxazinan-2-yl)methanone] displayed a melting point of 57.3 to 59.4 °C. Moreover, in series [1], the inhibition at 20 ppm is at least 80%. In addition, the pest or weed control at 200 ppm in series [2] was at least 80%. The pest or weed control at 200 ppm in the series on Phakopsora pachyrhizi is at least 80%. Moreover, the pest or weed control at 100 ppm with Uromyces viciae-fabae was at least 80%. Also, the pest or weed control at 200 ppm in series [3] was at least 80%.

Molecule `CC(CC#N)ONC(=O)c1ccc(-c2noc(C(F)(F)F)n2)cc1F` (centres unmarked) [Compound 1.11, N-(2-cyano-1-methyl-ethoxy)-2-fluoro-4-[5-(trifluoromethyl)-1,2,4-oxadiazol-3-yl]benzamide] came in with a melting point of 85.8 to 88 °C. The inhibition at 20 ppm in series [1] is at least 80%. Further, in series [2], the pest or weed control at 200 ppm is at least 80%. The pest or weed control at 200 ppm in the series on Phakopsora pachyrhizi was at least 80%. Moreover, in the series with Uromyces viciae-fabae, the pest or weed control at 100 ppm is at least 80%. Besides, the pest or weed control at 200 ppm in series [3] was at least 80%.

`O=C(c1ccc(-c2noc(C(F)(F)F)n2)cc1)N1OC2C=CC1CC2` (centres unmarked) [Compound 2.23, 2-oxa-3-azabicyclo[2.2.2]oct-5-en-3-yl-[4-[5-(trifluoromethyl)-1,2,4-oxadiazol-3-yl]phenyl]methanone] gave a melting point of 89 °C. The inhibition at 20 ppm in series [1] is at least 80%. Also, in series [2], the pest or weed control at 200 ppm was at least 80%. Besides, the pest or weed control at 200 ppm in the series with Phakopsora pachyrhizi is at least 80%. In addition, the pest or weed control at 100 ppm with Uromyces viciae-fabae is at least 80%. Moreover, the pest or weed control at 200 ppm in series [3] was at least 80%.

Consider `C#CCONC(=O)c1ccc(-c2noc(C(F)(F)F)n2)cc1` [Compound 2.11, N-prop-2-ynoxy-4-[5-(trifluoromethyl)-1,2,4-oxadiazol-3-yl]benzamide], for which the melting point lay in the range of 167 to 169 °C. Moreover, in series [1], the inhibition at 20 ppm is at least 80%. In addition, the pest or weed control at 200 ppm in series [2] is at least 80%. For the same molecule, the pest or weed control at 200 ppm in the series with Phakopsora pachyrhizi was at least 80%. Also, the pest or weed control at 100 ppm with Uromyces viciae-fabae is at least 80%. For the same molecule, the pest or weed control at 200 ppm in series [3] is at least 80%.

On to `CONC(=O)c1ccc(-c2noc(C(F)(F)F)n2)cc1F` [Compound 1.1, 2-fluoro-N-methoxy-4-[5-(trifluoromethyl)-1,2,4-oxadiazol-3-yl]benzamide], for which the melting point lay in the range of 122 to 125 °C. In series [1], the inhibition at 20 ppm was at least 80%. Besides, in series [2], the pest or weed control at 200 ppm is at least 80%. In addition, in the series with Phakopsora pachyrhizi, the pest or weed control at 200 ppm was at least 80%. Besides, the pest or weed control at 100 ppm in the series with Uromyces viciae-fabae is at least 80%. For the same molecule, the pest or weed control at 200 ppm in series [3] was at least 80%.

Molecule `O=C(c1ccc(-c2noc(C(F)(F)F)n2)cc1)N1OC2CCC1CC2` [Compound 2.24, 2-oxa-3-azabicyclo[2.2.2]octan-3-yl-[4-[5-(trifluoromethyl)-1,2,4-oxadiazol-3-yl]phenyl]methanone] yielded a melting point of 120 to 121 °C. Further, the inhibition at 20 ppm in series [1] was at least 80%. In the series on Phakopsora pachyrhizi, the pest or weed control at 200 ppm is at least 80%. Besides, the pest or weed control at 100 ppm with Uromyces viciae-fabae is at least 80%. Also, in series [3], the pest or weed control at 200 ppm was at least 80%.

Regarding `CON(C(=O)c1ccc(-c2noc(C(F)(F)F)n2)cc1F)C(C)Cc1c(Cl)cc(Cl)cc1Cl` (centres unmarked) [Compound 1.4, 2-fluoro-N-methoxy-N-[1-methyl-2-(2,4,6-trichlorophenyl)ethyl]-4-[5-(trifluoromethyl)-1,2,4-oxadiazol-3-yl]benzamide], the melting point lay in the range of 83.5 to 86.2 °C. In the series with Uromyces viciae-fabae, the pest or weed control at 100 ppm was at least 80%.

In the case of `CCONC(=O)Cc1ccc(-c2noc(C(F)(F)F)n2)c(F)c1` [Compound 1.22, N-ethoxy-2-[3-fluoro-4-[5-(trifluoromethyl)-1,2,4-oxadiazol-3-yl]phenyl]acetamide], the melting point lay in the range of 150 to 152 °C. For the same molecule, the inhibition at 20 ppm in series [1] is at least 80%. Besides, the pest or weed control at 200 ppm in series [2] was at least 80%. Besides, in the series on Phakopsora pachyrhizi, the pest or weed control at 200 ppm is at least 80%. For the same molecule, in series [3], the pest or weed control at 200 ppm is at least 80%.

Regarding `CONC(=O)Cc1ccc(-c2noc(C(F)(F)F)n2)c(F)c1` [Compound 1.17, 2-[3-fluoro-4-[5-(trifluoromethyl)-1,2,4-oxadiazol-3-yl]phenyl]-N-methoxy-acetamide], the melting point was in the range of 131 to 133 °C. Further, the inhibition at 20 ppm in series [1] was at least 80%. Moreover, the pest or weed control at 200 ppm in series [2] is at least 80%. Also, the pest or weed control at 200 ppm with Phakopsora pachyrhizi was at least 80%. Further, the pest or weed control at 200 ppm in series [3] was at least 80%.

The molecule `O=C(c1ccc(-c2noc(C(F)(F)F)n2)cc1F)N1CCCO1` [Compound 1.26, [2-fluoro-4-[5-(trifluoromethyl)-1,2,4-oxadiazol-3-yl]phenyl]-isoxazolidin-2-yl-methanone] registered a melting point of 60.3 to 62.4 °C. The inhibition at 20 ppm in series [1] is at least 80%. Further, the pest or weed control at 200 ppm in series [2] was at least 80%. Further, in the series with Uromyces viciae-fabae, the pest or weed control at 100 ppm is at least 80%. Moreover, the pest or weed control at 200 ppm in series [3] was at least 80%.

The molecule `CON(C)C(=O)Cc1ccc(-c2noc(C(F)(F)F)n2)cc1F` [Compound 1.19, 2-[2-fluoro-4-[5-(trifluoromethyl)-1,2,4-oxadiazol-3-yl]phenyl]-N-methoxy-N-methyl-acetamide] had a melting point of 104 to 106 °C. Besides, the inhibition at 20 ppm in series [1] was at least 80%. In addition, in series [2], the pest or weed control at 200 ppm is at least 80%. In addition, in the series on Phakopsora pachyrhizi, the pest or weed control at 200 ppm was at least 80%. In series [3], the pest or weed control at 200 ppm is at least 80%.

`C=CCONC(=O)c1ccc(-c2noc(C(F)(F)F)n2)cc1` [Compound 2.12, N-allyloxy-4-[5-(trifluoromethyl)-1,2,4-oxadiazol-3-yl]benzamide] displayed a melting point of 134 to 135 °C. Moreover, the inhibition at 20 ppm in series [1] was at least 80%. For the same molecule, the pest or weed control at 200 ppm in series [2] was at least 80%. Further, in the series with Phakopsora pachyrhizi, the pest or weed control at 200 ppm was at least 80%. Further, the pest or weed control at 100 ppm in the series with Uromyces viciae-fabae is at least 80%. The pest or weed control at 200 ppm in series [3] was at least 80%.

As for `CONC(=O)Cc1ccc(-c2noc(C(F)(F)F)n2)cc1` [Compound 2.13, N-methoxy-2-[4-[5-(trifluoromethyl)-1,2,4-oxadiazol-3-yl]phenyl]acetamide], the melting point was 131 to 138 °C. The inhibition at 20 ppm in series [1] was at least 80%. Further, the pest or weed control at 200 ppm in series [2] is at least 80%. Further, the pest or weed control at 200 ppm in the series on Phakopsora pachyrhizi is at least 80%. For the same molecule, the pest or weed control at 200 ppm in series [3] was at least 80%.

For the origin of these results see patent US11154060B2, “Microbiocidal oxadiazole derivatives” (SYNGENTA PARTICIPATIONS AG, priority 2016, dated 2021).
